From patent US20060003993A1, “Benzotriazepnes as gastrin and cholecystokinin receptor ligands” (James Black Foundation Limited, priority 2001, published 2006) come the findings set out here.

One test has as its target T1, gastrin (CCK2) receptors (Rattus norvegicus, UniProt P30553).
T1 construct: The stomach was excised and flushed with ca. 1 ml of unbuffered physiological saline solution; from tissue; host or cells: isolated lumen-perfused stomach of immature rats (ca. 21 days old)
T1 sequence (P30553 1-452): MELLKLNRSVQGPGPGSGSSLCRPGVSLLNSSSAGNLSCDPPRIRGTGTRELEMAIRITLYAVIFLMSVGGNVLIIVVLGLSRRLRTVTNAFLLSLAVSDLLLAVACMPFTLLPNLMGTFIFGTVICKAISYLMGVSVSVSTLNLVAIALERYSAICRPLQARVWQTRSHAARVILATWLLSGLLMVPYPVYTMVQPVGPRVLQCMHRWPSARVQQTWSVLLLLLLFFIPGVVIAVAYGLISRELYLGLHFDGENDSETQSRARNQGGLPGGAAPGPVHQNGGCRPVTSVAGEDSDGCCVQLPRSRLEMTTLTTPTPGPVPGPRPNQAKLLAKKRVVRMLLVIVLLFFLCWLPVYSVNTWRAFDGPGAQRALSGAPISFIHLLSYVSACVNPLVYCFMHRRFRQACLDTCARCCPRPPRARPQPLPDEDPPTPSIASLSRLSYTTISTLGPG
Kind of test: immature rat stomach assay, gastrin (CCK2) antagonist activity. As to conditions: pentagastrin dose-response curves, acid secretion. Type of test: cell-based. The method, then: The compounds of the examples were tested for gastrin (CCK2) antagonist activity in an immature rat stomach assay. The procedure was as follows:
The oesophagus of immature rats (33-50 g, ca. 21 days old) was ligated at the level of the cardiac sphincter and the duodenal sphincter was cannulated. The stomach was excised and flushed with ca. 1 ml of unbuffered physiological saline solution. The fundus was punctured and cannulated. A further 4-5 ml of unbuffered solution was flushed through the stomach to ensure the preparation was not leaking. […] The stomach was continuously perfused at a rate of 1 ml min^−1 with unbuffered solution gassed with 100% O2 with the perfusate passing over an internally referenced pH-electrode fixed 12 cm above the stomach.
After 120 min of stabilisation the drugs were added directly to the serosal solution in the organ bath and after a further 60 min cumulative pentagastrin dose-response curves were started.

In test [1] the target is T2, human gastrin (CCK2) receptors (Homo sapiens, UniProt P32239).
T2 construct: amplified by PCR (polymerase chain reaction) from the start codon to the stop codon; expressed in transfected cells
T2 sequence (P32239 1-447): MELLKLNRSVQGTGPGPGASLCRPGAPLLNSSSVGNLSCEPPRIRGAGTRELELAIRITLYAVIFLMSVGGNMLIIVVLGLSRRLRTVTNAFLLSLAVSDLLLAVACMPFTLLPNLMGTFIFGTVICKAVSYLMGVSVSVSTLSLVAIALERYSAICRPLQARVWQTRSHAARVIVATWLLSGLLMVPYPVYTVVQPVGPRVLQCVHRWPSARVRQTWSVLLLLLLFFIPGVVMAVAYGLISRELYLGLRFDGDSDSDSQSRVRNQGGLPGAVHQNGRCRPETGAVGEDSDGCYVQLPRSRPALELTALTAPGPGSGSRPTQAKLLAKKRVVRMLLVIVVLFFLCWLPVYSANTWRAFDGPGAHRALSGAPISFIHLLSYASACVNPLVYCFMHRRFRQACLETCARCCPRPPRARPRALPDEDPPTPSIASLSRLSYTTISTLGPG
Kind of test: [125I]-BH-CCK-8S competition binding at human CCK2 receptors cloned into NIH3T3 cells. The settings on record: hCCK2 receptor, NIH3T3 clone 7 membranes, [125I]-BH-CCK-8S 200 pM, 150 min at 21° C.
Source text: Step a: Subcloning of IMAGE Clone Encoding the Human CCK2R into a Mammalian Expression Vector
I.M.A.G.E. (Integrated Molecular Analysis of Genomes and their Expression) clone number 3504160 (Lennon et al. Genomics 33, 151-152 (1996)) was purchased from the HGMP (Human Genome Mapping Project, Cambridge). The cDNA encoding the mRNA for the human CCK2R, corresponding to accession number BC000740, was present in vector pOTB7 in host cell DH10B. The cells, initially streaked on to LB-Agar plates containing 20 μg/ml chloramphenicol, were then grown in LB containing 20 μg/ml chloramphenicol with shaking at 37° C. according to standard techniques (Current Protocols in Molecular Biology, Wiley). DNA was prepared using the QIAGEN® EndoFree™ plasmid Maxi kit (Qiagen Ltd.) according to the manufacturer's protocol. The DNA was then amplified by PCR (polymerase chain reaction) from the start codon to the stop codon using primers containing restriction sites, Eco R1 and Xba I respectively, to facilitate uni-directional cloning. […]
The PCR product was purified using the QIAGEN® MinElute™ PCR purification kit, according to the manufacturer's instructions. […] The digested DNA bands of the correct size, analysed by ethidium bromide stained agarose/TBE gels, were excised and purified using QIAGEN@ MinElute™ gel extraction kit, according to the manufacturer's instructions. […]

Each structure is given as a SMILES string.

As for `CNc1cc(NC(=O)CN2N=C(C3CCCCC3)c3ccccc3N(CC(O)C(C)(C)C)C2=O)cc(C(=O)OC)c1` (stereo not drawn) [Example 78], the pKB rat stomach at gastrin (CCK2) receptors turned out to be 6.49 ± 0.33. At gastrin (CCK2) receptors, `Cc1cccc2c1C(C1CCCCC1)=NN(CC(=O)Nc1cccc(C(=O)O)c1)C(=O)N2CC(=O)C(C)(C)C` [Example 114] came in with a pKB rat stomach of 7.45 ± 0.43. Consider `Cc1cccc(NC(=O)N[C@@H]2N=C(c3ccccc3)c3ccccc3N(CC(=O)c3ccccc3C)C2=O)c1` [YM022], for which, in test [1], the “pKi ± s.e.mean” value is reported as 10.19 ± 0.03.
